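In this assay, cells in 96-well plates receive the compound at five concentrations for 48 hours. Endpoints are linearly interpolated between the surrounding concentrations. TGI: total growth inhibition.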 *1 amine or outer side, *2 acyl side, *3 side chain or, on linkers, in order; H or OH if unused. Where a SMILES comes first, the peptide text is derived from it. [ ]: non-standard residue; d: D form. The star is where a group is joined. X31 = CC(=O)N(C)SCC(N[*:1])C(=O)[*:2]; Cbz = O=C(OCc1ccccc1)*; Bn = c1ccc(C*)cc1
Tests used:
Test in all cases: NCI anticancer screen, dose series, 48 h
786-0 renal = test system: 786-0 renal
A498 renal = test system: A498 renal
A549 NSCLC = test system: A549 NSCLC
ACHN renal = test system: ACHN renal
BT-549 breast = test system: BT-549 breast
CAKI-1 renal = test system: CAKI-1 renal
CCRF-CEM leukemia = test system: CCRF-CEM leukemia
COLO 205 colon = test system: COLO 205 colon
DU-145 prostate = test system: DU-145 prostate
EKVX NSCLC = test system: EKVX NSCLC
HCT-116 colon = test system: HCT-116 colon
HCT-15 colon = test system: HCT-15 colon
HL-60(TB) leukemia = test system: HL-60(TB) leukemia
HOP-62 NSCLC = test system: HOP-62 NSCLC
HOP-92 NSCLC = test system: HOP-92 NSCLC
HS 578T breast = test system: HS 578T breast
HT29 colon = test system: HT29 colon
IGROV1 ovarian = test system: IGROV1 ovarian
K-562 leukemia = test system: K-562 leukemia
KM12 colon = test system: KM12 colon
LOX IMVI melanoma = test system: LOX IMVI melanoma
M14 melanoma = test system: M14 melanoma
MALME-3M melanoma = test system: MALME-3M melanoma
MCF7 breast = test system: MCF7 breast
MDA-MB-231 breast = test system: MDA-MB-231 breast
MDA-MB-435 = test system: MDA-MB-435
MDA-N = test system: MDA-N
MOLT-4 leukemia = test system: MOLT-4 leukemia
NCI-H226 lung = test system: NCI-H226 lung
NCI-H23 lung = test system: NCI-H23 lung
NCI-H522 lung = test system: NCI-H522 lung
NCI/ADR-RES ovarian = test system: NCI/ADR-RES ovarian
OVCAR-3 ovarian = test system: OVCAR-3 ovarian
OVCAR-4 ovarian = test system: OVCAR-4 ovarian
OVCAR-5 ovarian = test system: OVCAR-5 ovarian
OVCAR-8 ovarian = test system: OVCAR-8 ovarian
PC-3 prostate = test system: PC-3 prostate
RPMI-8226 leukemia = test system: RPMI-8226 leukemia
RXF 393 renal = test system: RXF 393 renal
SF-268 CNS = test system: SF-268 CNS
SF-295 CNS = test system: SF-295 CNS
SK-MEL-2 melanoma = test system: SK-MEL-2 melanoma
SK-MEL-28 melanoma = test system: SK-MEL-28 melanoma
SK-MEL-5 melanoma = test system: SK-MEL-5 melanoma
SK-OV-3 ovarian = test system: SK-OV-3 ovarian
SN12C renal = test system: SN12C renal
SNB-19 CNS = test system: SNB-19 CNS
SNB-75 CNS = test system: SNB-75 CNS
SR leukemia = test system: SR leukemia
SW-620 colon = test system: SW-620 colon
T-47D breast = test system: T-47D breast
TK-10 renal = test system: TK-10 renal
U251 CNS = test system: U251 CNS
UACC-257 melanoma = test system: UACC-257 melanoma
UACC-62 melanoma = test system: UACC-62 melanoma
UO-31 renal = test system: UO-31 renal
HCC-2998 colon = test system: HCC-2998 colon
NCI-H460 lung = test system: NCI-H460 lung
SF-539 CNS = test system: SF-539 CNS

SMILES: O=C1c2cc([N+](=O)[O-])ccc2-c2ccc3c4ccc5c6c(ccc(c7ccc1c2c73)c64)C(=O)c1cc([N+](=O)[O-])ccc1-5
- TGI (786-0 renal): > 100 µM
- TGI (A498 renal): > 100 µM
- TGI (A549 NSCLC): > 100 µM
- TGI (ACHN renal): > 100 µM
- TGI (BT-549 breast): > 100 µM
- TGI (CAKI-1 renal): > 100 µM
- TGI (CCRF-CEM leukemia): > 100 µM
- TGI (COLO 205 colon): > 100 µM
- TGI (DU-145 prostate): > 100 µM
- TGI (EKVX NSCLC): > 100 µM
- TGI (HCT-116 colon): > 100 µM
- TGI (HCT-15 colon): > 100 µM
- TGI (HL-60(TB) leukemia): > 100 µM
- TGI (HOP-62 NSCLC): > 100 µM
- TGI (HOP-92 NSCLC): > 100 µM
- TGI (HS 578T breast): > 100 µM
- TGI (HT29 colon): > 100 µM
- TGI (IGROV1 ovarian): > 100 µM
- TGI (K-562 leukemia): > 100 µM
- TGI (KM12 colon): > 100 µM
- TGI (LOX IMVI melanoma): > 100 µM
- TGI (M14 melanoma): > 100 µM
- TGI (MALME-3M melanoma): > 100 µM
- TGI (MCF7 breast): > 100 µM
- TGI (MDA-MB-231 breast): > 100 µM
- TGI (MDA-MB-435): > 100 µM
- TGI (MDA-N): > 100 µM
- TGI (MOLT-4 leukemia): > 100 µM
- TGI (NCI-H226 lung): > 100 µM
- TGI (NCI-H23 lung): > 100 µM
- TGI (NCI-H522 lung): > 100 µM
- TGI (NCI/ADR-RES ovarian): > 100 µM
- TGI (OVCAR-3 ovarian): > 100 µM
- TGI (OVCAR-4 ovarian): > 100 µM
- TGI (OVCAR-5 ovarian): > 100 µM
- TGI (OVCAR-8 ovarian): > 100 µM
- TGI (PC-3 prostate): > 100 µM
- TGI (RPMI-8226 leukemia): > 100 µM
- TGI (RXF 393 renal): > 100 µM
- TGI (SF-268 CNS): > 100 µM
- TGI (SF-295 CNS): > 100 µM
- TGI (SK-MEL-2 melanoma): > 100 µM
- TGI (SK-MEL-28 melanoma): > 100 µM
- TGI (SK-MEL-5 melanoma): > 100 µM
- TGI (SK-OV-3 ovarian): > 100 µM
- TGI (SN12C renal): > 100 µM
- TGI (SNB-19 CNS): > 100 µM
- TGI (SNB-75 CNS): > 100 µM
- TGI (SR leukemia): > 100 µM
- TGI (SW-620 colon): > 100 µM
- TGI (T-47D breast): > 100 µM
- TGI (TK-10 renal): > 100 µM
- TGI (U251 CNS): > 100 µM
- TGI (UACC-257 melanoma): > 100 µM
- TGI (UACC-62 melanoma): > 100 µM
- TGI (UO-31 renal): > 100 µM

SMILES: CCOC(=O)C(NC(=O)c1ccccc1)(Nc1ccc(Cl)cc1C(F)(F)F)C(F)(F)F (stereo not given)
- TGI (786-0 renal): > 100 µM
- TGI (A498 renal): 47.1 µM
- TGI (A549 NSCLC): > 100 µM
- TGI (ACHN renal): 27.4 µM
- TGI (BT-549 breast): 32.4 µM
- TGI (CAKI-1 renal): > 55.7 µM
- TGI (COLO 205 colon): 19.2 µM
- TGI (DU-145 prostate): > 100 µM
- TGI (EKVX NSCLC): > 100 µM
- TGI (HCC-2998 colon): > 79.4 µM
- TGI (HCT-116 colon): > 84.5 µM
- TGI (HCT-15 colon): > 50.9 µM
- TGI (HL-60(TB) leukemia): 5.04 µM
- TGI (HOP-62 NSCLC): 31.8 µM
- TGI (HOP-92 NSCLC): 50.7 µM
- TGI (HS 578T breast): > 100 µM
- TGI (HT29 colon): 6.53 µM
- TGI (IGROV1 ovarian): > 64.7 µM
- TGI (K-562 leukemia): > 26.7 µM
- TGI (KM12 colon): 5.17 µM
- TGI (LOX IMVI melanoma): > 100 µM
- TGI (M14 melanoma): 28 µM
- TGI (MALME-3M melanoma): 22.1 µM
- TGI (MCF7 breast): > 100 µM
- TGI (MDA-MB-231 breast): 77.2 µM
- TGI (MDA-MB-435): 3.24 µM
- TGI (MDA-N): 3.69 µM
- TGI (MOLT-4 leukemia): > 22.2 µM
- TGI (NCI-H226 lung): > 100 µM
- TGI (NCI-H23 lung): > 78 µM
- TGI (NCI-H460 lung): > 52.3 µM
- TGI (NCI-H522 lung): 7.29 µM
- TGI (NCI/ADR-RES ovarian): 10.6 µM
- TGI (OVCAR-3 ovarian): 18.7 µM
- TGI (OVCAR-4 ovarian): > 100 µM
- TGI (OVCAR-5 ovarian): > 100 µM
- TGI (OVCAR-8 ovarian): > 100 µM
- TGI (PC-3 prostate): 29.2 µM
- TGI (RPMI-8226 leukemia): > 100 µM
- TGI (RXF 393 renal): 24.7 µM
- TGI (SF-268 CNS): > 100 µM
- TGI (SF-295 CNS): > 69.8 µM
- TGI (SF-539 CNS): > 88.6 µM
- TGI (SK-MEL-2 melanoma): > 45.1 µM
- TGI (SK-MEL-28 melanoma): > 100 µM
- TGI (SK-MEL-5 melanoma): > 37.5 µM
- TGI (SK-OV-3 ovarian): > 100 µM
- TGI (SN12C renal): > 44.2 µM
- TGI (SNB-19 CNS): > 100 µM
- TGI (SNB-75 CNS): 15.1 µM
- TGI (SR leukemia): > 24 µM
- TGI (SW-620 colon): 17.2 µM
- TGI (T-47D breast): > 45.6 µM
- TGI (TK-10 renal): > 100 µM
- TGI (U251 CNS): 19 µM
- TGI (UACC-257 melanoma): > 100 µM
- TGI (UACC-62 melanoma): 27.4 µM
- TGI (UO-31 renal): > 100 µM

SMILES: CC(=O)N(C)SCC(NC(=O)C(Cc1ccccc1)NC(=O)OCc1ccccc1)C(=O)NC(Cc1ccccc1)C(=O)NC(Cc1c[nH]c2ccccc12)C(=O)NC(CCCCNC(=O)OCc1ccccc1)C(=O)NC(C(=O)NC(CSN(C)C(C)=O)C(=O)NC(C(N)=O)C(C)OCc1ccccc1)C(C)OCc1ccccc1 (stereo not given) (Cbz-F[X31]FWK(Cbz)T(Bn)[X31]T(Bn)-NH2; configuration not given here)
- TGI (786-0 renal): > 100 µM
- TGI (A549 NSCLC): > 100 µM
- TGI (ACHN renal): > 100 µM
- TGI (BT-549 breast): > 100 µM
- TGI (CCRF-CEM leukemia): > 100 µM
- TGI (COLO 205 colon): > 100 µM
- TGI (DU-145 prostate): > 100 µM
- TGI (EKVX NSCLC): > 100 µM
- TGI (HCC-2998 colon): > 100 µM
- TGI (HCT-116 colon): > 100 µM
- TGI (HCT-15 colon): > 100 µM
- TGI (HL-60(TB) leukemia): > 100 µM
- TGI (HOP-62 NSCLC): > 100 µM
- TGI (HOP-92 NSCLC): > 100 µM
- TGI (HS 578T breast): > 100 µM
- TGI (HT29 colon): > 100 µM
- TGI (IGROV1 ovarian): > 100 µM
- TGI (K-562 leukemia): > 100 µM
- TGI (KM12 colon): > 100 µM
- TGI (LOX IMVI melanoma): > 100 µM
- TGI (M14 melanoma): > 100 µM
- TGI (MALME-3M melanoma): > 100 µM
- TGI (MCF7 breast): > 100 µM
- TGI (MDA-MB-231 breast): > 100 µM
- TGI (MDA-MB-435): > 100 µM
- TGI (MDA-N): > 100 µM
- TGI (MOLT-4 leukemia): > 100 µM
- TGI (NCI-H226 lung): > 100 µM
- TGI (NCI-H23 lung): > 100 µM
- TGI (NCI-H460 lung): > 100 µM
- TGI (NCI/ADR-RES ovarian): > 100 µM
- TGI (OVCAR-3 ovarian): > 100 µM
- TGI (OVCAR-4 ovarian): > 100 µM
- TGI (OVCAR-5 ovarian): > 100 µM
- TGI (OVCAR-8 ovarian): > 100 µM
- TGI (PC-3 prostate): > 100 µM
- TGI (RPMI-8226 leukemia): > 100 µM
- TGI (RXF 393 renal): > 100 µM
- TGI (SF-268 CNS): > 100 µM
- TGI (SF-295 CNS): > 100 µM
- TGI (SF-539 CNS): > 100 µM
- TGI (SK-MEL-2 melanoma): > 100 µM
- TGI (SK-MEL-28 melanoma): > 100 µM
- TGI (SK-MEL-5 melanoma): > 100 µM
- TGI (SK-OV-3 ovarian): > 100 µM
- TGI (SN12C renal): > 100 µM
- TGI (SNB-19 CNS): > 100 µM
- TGI (SNB-75 CNS): > 100 µM
- TGI (SR leukemia): > 100 µM
- TGI (SW-620 colon): > 100 µM
- TGI (T-47D breast): > 100 µM
- TGI (TK-10 renal): > 100 µM
- TGI (U251 CNS): > 100 µM
- TGI (UACC-257 melanoma): > 100 µM
- TGI (UACC-62 melanoma): > 100 µM
- TGI (UO-31 renal): > 100 µM
